Data as given in patent publication US6514709B1, “High throughput screening by measurement of intracellular calcium levels” (Merck & Co., Inc., priority 2000, dated 2003).
Each block holds one compound with its values, some of them ahead of it.

What was measured:
[1] = target: T1, rat VR1 capsaicin receptor (Rattus norvegicus, UniProt O35433); assay: Fluo-3 fluorescence calcium response in VR1 cells (VIPR); format: cell-based
T1 construct: expressed in transfected cells
Experimental: (§1) Parental HEK293 cell lines expressing apoaequorin (293AEQ17 cells) were used to develop stable clonal cell lines expressing the rat VR1 capsaicin receptor (Caterina, M. J., Schumacher, M. A., Tominaga, M., Rosen, T. A., Levine, J. D., and Julius, D. (1997) The capsaicin receptor: a heat-activated ion channel in the pain pathway. Nature 389, 816-824). The VR1 293AEQ17 were maintained on growth media containing DMEM (GIBCOBRL, high glucose, with L-glutamine, with 110 mg/L sodium pyruvate, with pyridoxine HCl), 25 mM HEPES (GIBCOBRL, 1M stock), 0.5 mg/mL geneticin (GIBCOBRL, 50 mg/mL stock), 1 μg/mL puromycin (CLONTECH), and 10% fetal bovine serum (GEMINI BIO-PRODUCTS, heat inactivated) at 37° C., 10% CO^2.
Cells were grown to 80-95% confluence in tissue culture flasks (T-225, CORNING) and harvested by trypsinization (Trypsin/EDTA, GIBCOBRL). Cells were dispensed (about 1×10^5 cells/0.2 ml/well) into 96-well black clear-bottom BIOCOAT poly-D-lysine plates (BECTON DICKENSON, Bedford, Mass.) in growth media and incubated overnight at 37° C. in a humidified incubator at 10% CO^2. Cells were washed once with 200 μls of enriched PBS (Dulbecco's PBS (GIBCOBRL #14040-117), 10 mM HEPES, 2 g/L glucose; pH 7.2) and then incubated with 100 μl of 5 μM fluo-3-AM (MOLECULAR PROBES #F1241) with or without of 1,2-bis(o-aminophenoxy)ethane-N,N,N′,N′-tetraacetic acid tetra(acetoxymethyl) ester (BAPTA-AM, MOLECULAR PROBES #B 1205) in enriched PBS containing 0.02% pluronic F-127 (MOLECULAR PROBES #P-3000) for 30-70 minutes. Wells were washed two times with 100 μl of enriched-PBS, and then 100 μl enriched-PBS with or without antagonist was added for 15-30 minutes prior to assay on the AURORA fluorescence plate reader VIPR (ex. 480 nm, em. 535 nm). […] The calcium response was initiated by addition of 100 μl of the indicated concentration of capsaicin (SIGMA #M2028). The VIPR instrument was used to add agonist (in 100 μl enriched-PBS) after recording a 10 sec. baseline and the fluorescence was measured for up to 300 sec.
Changes in intracellular calcium were measured using the fluo-3 dye and detecting the kinetics of the response after addition of the VR1 agonist, capsaicin (0.5 uM) to cells expressing VR1 using a VIPR fluorescence plate reader (FIGS. 5 & 6A).

[2] = target: T2, human growth hormone secretagogue receptor type 1a (hGHSR1A) (Homo sapiens, UniProt Q92847); assay: Fluo-4 fluorescence calcium response in hGHSR1a cells (VIPR); format: cell-based; settings: 30 μM BAPTA-AM, 100 nM ghrelin
T2 construct: expressed in transfected cells
Experimental: Cells were grown to 80-95% confluence in tissue culture flasks (T-225, Corning) and harvested by trypsinization (Trypsin/EDTA, GIBCOBRL). Cells were dispensed (about 1×10^5 cells/0.2 ml/well) into 96-well black clear-bottom BIOCOAT poly-D-lysine plates (BECTON DICKENSON, Bedford, Mass.) in growth media and incubated overnight at 37° C. in a humidified incubator at 10% CO^2. […] Wells were washed two times with 100 μl of enriched-PBS, and then 100 μl enriched-PBS with or without antagonist was added for 15-30 minutes prior to assay on the AURORA fluorescence plate reader VIPR (ex. 480 nm, em. 535 nm). […] The VIPR instrument was used to add agonist (in 100 μl enriched-PBS) after recording a 10 sec. baseline and the fluorescence was measured for up to 300 sec.

[3] = target: T3, endogenous muscarinic receptor (Homo sapiens, UniProt P20309); assay: Fluo-4 fluorescence calcium response in HEK-AEQ17 cells (VIPR); format: cell-based; settings: 3 μM BAPTA-AM, muscimol (10 μM)
T3 construct: stimulated an endogenous muscarinic receptor; endogenous in cells; host or cells: parental HEK293 apoaequorin cells (293AEQ17 / HEK-AEQ17)
Experimental: The VIPR instrument was used to add agonist (in 100 μl enriched-PBS) after recording a 10 sec. baseline and the fluorescence was measured for up to 300 sec.
Muscimol stimulated an endogenous muscarinic receptor (Moriya, H., Takagi, Y., Nakanishi, T., Hayashi, M., Tani, T., and Hirotsu, I. (1999) Affinity profiles of various muscarinic antagonists for cloned human muscarinic acetylcholine receptor (MACHR) subtypes and MACHRS in rat heart and submandibular gland. Life Sciences 25 2351-2358; Caulfield, M. P. (1993) Muscarinic receptors-characterization, coupling and function. Pharmac. Ther. 58, 319-379)in HEK-AEQ17 cells which gave a robust fluorescence signal when measured with fluo-4 using the VIPR. The kinetics of this calcium transient was different from that measured for either the VR1 or hGHSR1a calcium transient. Activation with muscimol (10 μM) caused a fast transient response, followed by a slower response (FIG. 9A). The fast transient response was very sensitive to BAPTA, and was eliminated by low levels of the chelator (3 μM BAPTA-AM), but a fluorescence signal could be detected under these conditions that was stable for at least 3 minutes. At a higher BAPTA concentration (10 μM BAPTA-AM), the increase in fluorescence was very slow and had not yet stabilized even after 3 minutes.

[4] = target: T1, rat VR1 capsaicin receptor; assay: Aequorin luminescence in VR1 cells (WALLAC MICROBETA JET); format: cell-based; settings: for time to peak response: 0.5 μM capsaicin
Experimental: as §1, with “receptor.” for “receptor (Caterina, M. J., Schumacher, M. A., Tominaga, M., Rosen, T. A., Levine, J. D., and Julius, D. (1997) The capsaicin receptor: a heat-activated ion channel in the pain pathway. Nature 389, 816-824).”
Cells were grown to 80-95% confluence in tissue culture flasks (T-225, Corning) and harvested by trypsinization (Trypsin/EDTA, GIBCOBRL). Cells were dispensed (about 1×10^5 cells/0.2 ml/well) into 96-well white clear-bottom BIOCOAT poly-D-lysine plates (BECTON DICKENSON, Bedford, Mass.) in growth media and incubated overnight at 37° C. in a humidified incubator at 10% CO^2. Cells were charged with the aequorin substrate, coelenterazine h (MOLECULAR PROBES, #C-6780), by removing the growth media and incubating the cells with 75 μl of charge buffer (DMEM GIBCOBRL #12320-032; 0.1% FBS GEMINI BIO-PRODUCTS, Inc. #100-107;5 μM coelenterazine h; 30 μM reduced glutathione) for 2 hours at 37° C., 10% CO^2. The charge buffer was then removed and the cells were washed twice with 100 μl of enriched-PBS (pH 7.2) and then incubated with 100 μl of enriched-PBS supplemented with 0-30 μM BAPTA-AM for 30-120 min at 37° C., 10% CO^2. The cells were then washed and loaded with […] of enriched-PBS with or without the indicated antagonist. The calcium response was initiated by addition of 100 μl of the indicated concentration of capsaicin (SIGMA #M2028) to the wells by a WALLAC MICROBETA JET. In order to obtain more consistent kinetics, the Jet was set to simultaneously read only six wells per determination.
For these experiments, the kinetics of the flash luminescence were followed using a WALLAC MICROBETA JET luminometer that injects reagent and records light emission from six wells of a 96-well plate simultaneously.

[5] = target: T2, human growth hormone secretagogue receptor type 1a (hGHSR1A); assay: Aequorin luminescence in hGHSR1A cells (WALLAC MICROBETA JET); format: cell-based; settings: 30 μM BAPTA-AM, 100 nM ghrelin
Experimental: Cells were charged with the aequorin substrate, coelenterazine h (MOLECULAR PROBES, #C-6780), by removing the growth media and incubating the cells with 75 μl of charge buffer (DMEM GIBCOBRL#12320-032; 0.1% FBS GEMINI BIO-PRODUCTS, Inc. #100-107; 5 μM coelenterazine h; 30 μM reduced glutathione) for 2 hours at 37° C., 10% CO^2. […] The cells were then washed and loaded with 100 μl of enriched-PBS with or without the indicated antagonist. […] In order to obtain more consistent kinetics, the Jet was set to simultaneously read only six wells per determination.

[6] = tested on: ligand-gated calcium channel; assay: Model aequorin-based functional cellular assay for a ligand-gated calcium channel; format: cell-based; settings: BAPTA-AM 0-30 uM, after injection of agonist
Experimental: For this assay, HEK293 cells co-expressing the receptor of interest and apoaequorin were grown to confluence in BIOCOAT poly-D-lysine opaque white 96-well microtiter plates (BECTON DICKINSON). The cells were maintained on a standard growth media. The cells were charged with growth media supplemented with 5 uM of coelenterazine h (MOLECULAR PROBES, Eugene, Oreg.) for 2 hr at 37° C. in a humidified incubator at 5% CO2. The charged cells were then washed and loaded with assay buffer.
Addition of agonist caused the rapid and transient luminescent signal that was complete within 10-15 seconds (FIG. 1). The kinetics of the flash luminescent signal was followed by using a WALLAC MICROBETA JET instrument where agonist was injected directly into the wells containing the charged cells. As a buffering reagent the cell permeable acetoxymethyl ester BAPTA-AM was used. BAPTA is a specific calcium chelator that rapidly binds and releases calcium. […] A schematic representation of this assay appears in FIG. 2.
The addition of increasing levels of BAPTA-AM (0-30 uM) caused an initial delay in the aequorin-based luminescence signal upon injection of agonist and extended the signal far greater than 30 seconds (FIG. 1). The addition of a known receptor antagonist was able to completely block the signal (FIG. 3).

[7] = tested on: ionomycin-induced calcium influx; settings: presence of BAPTA-AM; cited from earlier work
[8] = target: T1, rat VR1 capsaicin receptor; assay: Manual luminescence measurement in VR1 cells, read 2 minutes after agonist; format: cell-based
Experimental: Parental HEK293 cell lines expressing apoaequorin (293AEQ17 cells) were used to develop stable clonal cell lines expressing the rat VR1 capsaicin receptor.
Cells were grown to 80-95% confluence in tissue culture flasks (T-225, Corning) and harvested by trypsinization (Trypsin/EDTA, GIBCOBRL). Cells were dispensed (about 1×10^5 cells/0.2 ml/well) into 96-well white clear-bottom BIOCOAT poly-D-lysine plates (BECTON DICKENSON, Bedford, Mass.) in growth media and incubated overnight at 37° C. in a humidified incubator at 10% CO^2.

[9] = target: T2, human growth hormone secretagogue receptor type 1a (hGHSR1A); assay: Manual luminescence measurement in hGHSR1a cells, read 2 minutes after agonist; format: cell-based; settings: 2 minutes after 100 nM ghrelin, with BAPTA
Experimental: Parental HEK293 cell lines expressing apoaequorin (293AEQ17 cells) were used to develop stable clonal cell lines expressing the human growth hormone secretagogue receptor type 1a (hGHSR1A).
Cells were charged with the aequorin substrate, coelenterazine h (MOLECULAR PROBES, #C-6780), by removing the growth media and incubating the cells with 75 μl of charge buffer (DMEM GIBCOBRL #12320-032; 0.1% FBS GEMINI BIO-PRODUCTS, Inc. #100-107;5 μM coelenterazine h; 30 μM reduced glutathione) for 2 hours at 37° C., 10% CO^2. […] The cells were then washed and loaded with 100 μl of enriched-PBS with or without the indicated antagonist. […] The WALLAC MICROBETA JET was used to measure 10 sec of luminescence after a delay of 2 minutes.
J. Med Chem. 43 4370-4376). […] After a lapse of two minutes, the plates were read using the WALLAC MICROBETA JET luminometer. […] These complex dose-response curves were observed both in the presence and absence of BAPTA. Yet overall, the addition of BAPTA increased the luminescence such that a 6-fold signal over background could be measured 2 minutes after stimulation with agonist.

[10] = 0.5 uM capsaicin, absence of BAPTA

T2 sequence (Q92847 whole entry): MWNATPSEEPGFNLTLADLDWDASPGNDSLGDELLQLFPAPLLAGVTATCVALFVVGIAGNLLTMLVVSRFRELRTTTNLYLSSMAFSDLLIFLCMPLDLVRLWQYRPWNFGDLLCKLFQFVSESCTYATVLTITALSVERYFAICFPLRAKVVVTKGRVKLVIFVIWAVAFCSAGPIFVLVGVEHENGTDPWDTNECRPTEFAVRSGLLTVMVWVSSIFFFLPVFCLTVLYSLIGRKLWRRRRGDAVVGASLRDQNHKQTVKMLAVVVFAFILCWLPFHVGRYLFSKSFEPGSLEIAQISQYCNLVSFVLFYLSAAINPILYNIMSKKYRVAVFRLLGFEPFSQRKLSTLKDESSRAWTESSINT
T1 sequence (O35433 whole entry): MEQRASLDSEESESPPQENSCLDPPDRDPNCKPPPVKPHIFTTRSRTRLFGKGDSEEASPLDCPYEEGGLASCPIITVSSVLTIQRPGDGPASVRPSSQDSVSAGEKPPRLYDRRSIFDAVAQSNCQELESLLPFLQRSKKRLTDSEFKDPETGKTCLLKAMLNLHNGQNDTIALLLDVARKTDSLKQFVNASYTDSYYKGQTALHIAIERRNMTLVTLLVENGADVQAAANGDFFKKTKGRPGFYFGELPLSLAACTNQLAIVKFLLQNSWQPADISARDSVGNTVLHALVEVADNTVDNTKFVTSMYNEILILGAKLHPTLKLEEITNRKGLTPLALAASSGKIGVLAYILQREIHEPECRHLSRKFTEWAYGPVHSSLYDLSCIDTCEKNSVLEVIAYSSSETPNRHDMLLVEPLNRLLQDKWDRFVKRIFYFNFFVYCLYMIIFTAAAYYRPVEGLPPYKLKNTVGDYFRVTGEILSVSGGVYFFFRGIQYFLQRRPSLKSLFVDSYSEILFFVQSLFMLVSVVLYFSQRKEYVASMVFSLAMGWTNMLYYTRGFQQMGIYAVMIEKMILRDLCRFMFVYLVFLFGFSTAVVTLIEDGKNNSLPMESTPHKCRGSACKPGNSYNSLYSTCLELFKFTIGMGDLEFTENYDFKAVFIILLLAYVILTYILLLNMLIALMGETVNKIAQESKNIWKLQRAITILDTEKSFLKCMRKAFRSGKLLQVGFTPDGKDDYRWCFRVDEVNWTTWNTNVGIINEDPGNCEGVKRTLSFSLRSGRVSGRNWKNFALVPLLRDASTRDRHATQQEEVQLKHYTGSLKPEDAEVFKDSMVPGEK
T3 sequence (P20309 whole entry): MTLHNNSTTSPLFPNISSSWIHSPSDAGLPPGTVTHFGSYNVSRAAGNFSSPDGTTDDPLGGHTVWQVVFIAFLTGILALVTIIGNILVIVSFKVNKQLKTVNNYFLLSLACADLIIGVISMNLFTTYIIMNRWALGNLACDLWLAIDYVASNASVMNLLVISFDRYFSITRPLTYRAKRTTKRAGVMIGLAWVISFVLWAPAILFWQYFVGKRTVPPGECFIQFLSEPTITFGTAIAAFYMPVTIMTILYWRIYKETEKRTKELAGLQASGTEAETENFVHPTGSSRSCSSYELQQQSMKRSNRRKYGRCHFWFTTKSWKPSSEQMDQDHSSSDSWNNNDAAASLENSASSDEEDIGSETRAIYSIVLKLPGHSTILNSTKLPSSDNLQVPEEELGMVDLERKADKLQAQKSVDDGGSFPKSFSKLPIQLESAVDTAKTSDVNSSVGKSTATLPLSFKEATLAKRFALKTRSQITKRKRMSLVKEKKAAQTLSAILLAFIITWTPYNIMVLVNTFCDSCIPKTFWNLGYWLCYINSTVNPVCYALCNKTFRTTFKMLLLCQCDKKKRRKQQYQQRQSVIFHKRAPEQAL

Structure (SMILES): CC(=O)OCOC(=O)CN(CC(=O)OCOC(C)=O)c1ccccc1OCCOc1ccccc1N(CC(=O)OCOC(C)=O)CC(=O)OCOC(C)=O [BAPTA-AM, 1,2-bis(o-aminophenoxy)ethane-N,N,N′,N′-tetraacetic acid tetra(acetoxymethyl)ester]
time to peak fluorescence signal ([1]; 3 μM BAPTA-AM for 30 minutes, 0.5 uM capsaicin): about 40 sec
fluo-3 signal decay time ([1]; 3 μM BAPTA-AM, 0.5 uM capsaicin): about 150 s
peak response time ([1]; 10 and 30 μM BAPTA-AM, 0.5 uM capsaicin): up to 100 sec
duration of stable fluorescent signal [2]: up to 5 minutes
time to peak fluorescence response [2]: 150 s
duration of stable fluorescence signal [3]: at least 3 minutes
effect on fast transient response [3]: eliminated
total signal at a given agonist concentration ([4]; 0 μM to 30 μM BAPTA-AM): did not significantly vary
time to peak response ([4]; 30 μM BAPTA-AM): 10 s
duration of extended luminescence signal ([4]; BAPTA-AM 0-30 μM, 50 nM capsaicin, maximum time recorded): up to 3 minutes
time of maximum luminescence response ([4]; increasing BAPTA-AM 0-30 μM, 50 nM capsaicin): 30 s
luminescence signal relative to the response in the absence of BAPTA [5]: about 5%
time to reach the maximum light emission [5]: 75 s
duration of extended luminescence signal [6]: greater than 30 seconds
slowing of calcium transients [7]: up to 8 fold

effect on peak signal ([1]; 3 μM BAPTA, 0.1 μM capsaicin): decreased the peak signal
signal over background ([8]; 2 minutes after 0.5 uM capsaicin, with BAPTA): 4 fold
signal over background [9]: 6 fold
Structure (SMILES): O=C(O)CN(CC(=O)O)c1ccccc1OCCOc1ccccc1N(CC(=O)O)CC(=O)O [BAPTA]

time to decay to 50% [1, 10]: about 150 sec
time to peak fluorescence response [1, 10]: about 20 sec
time for luminescence signal to be largely complete ([4]; 50 nM capsaicin, no BAPTA): ≤ 30 s
time to peak luminescence ([4]; 50 nM capsaicin, no BAPTA): about 10 sec
time to peak response ([4]; no BAPTA): about 5 sec
Structure (SMILES): COc1cc(CNC(=O)CCCC/C=C/C(C)C)ccc1O [capsaicin]

block of capsaicin response ([1]; 20 μM capsazepine, 0.5 uM capsaicin): completely blocked
block of luminescence signal ([8]; higher concentrations of antagonist, 0.5 uM capsaicin, with and without BAPTA): completely blocked
Structure (SMILES): Oc1cc2c(cc1O)CN(C(=S)NCCc1ccc(Cl)cc1)CCC2 [capsazepine]
